# Source: EP2077092A2, “System and Methods for Screening or Analyzing Targets” (Taipei Veterans General Hospital, priority 2007, dated 2009)
# Tests used:
# Format in all cases: cell-based, Sprague-Dawley (SD) rats
# IL-6 = IL-6 ELISA in LPS-treated NSCs; conditions: vs only LPS-treated NSCs, IM 3 µM, p<0.05
# LPS-treated NSCs [1] = test: TUNEL assay of LPS-induced apoptosis in NSCs; conditions: LPS-treated NSCs, vs LPS-treated NSCs without treatment
# NSCs [2] = test: Immunofluorescent assay of serotonin (5-HT)-positive cells in differentiating NSCs; conditions: Day 7 culture of IM-treated NSCs vs non IM-treated NSCs, p<0.05
# LPS-treated NSCs [3] = test: MTT cell survival of LPS-treated NSCs; conditions: vs the only LPS-treated NSCs; LPS 100 ng/ml
# NSCs [4] = test: Microdialysis with HPLC-ECD of 5-HT in the culture medium of IM-treated NSCs; conditions: Day 7 and Day 14, IM-treated NSCs vs NSCs without IM treatment, p<0.05
# Bcl-2 = test: Real-time RT-PCR of Bcl-2 mRNA in IM-treated NSCs
# Experimental: (§1) All animals used were treated in accordance with the Animal Care and Use Committee guideline at Taipei Veterans General Hospital. The protocol of the present study was also approved by the committee. Adult Sprague-Dawley (SD) rats (8 weeks old, 250 g) were anesthetized with intraperitoneal phenobarbital (Sigma, USA), and the location of their brains was mapped. Then, the brain […]. In brief, tissues from the hippocampus of adult rats were dissociated and incubated in Hank's balanced salt solution (HBSS) containing collagenase (78 units/ml) and hyaluronidase (38 units/ml) for 10 minutes at 37°C. The tissues were then mechanically dissected and placed in a trypsin solution (1.33 mg/ml) at 37°C for another 10 minutes. Dissociated cells were then centrifuged at 150 GG for 5 minutes. […] Viable cells were counted by trypan blue exclusion and plated as 5000 cells/200 µL per well in 96-well plates (Coming Inc, Acton, MA, USA) with no substrate pretreatment. […]
# (§2) For real-time RT-PCR, the total RNA was extracted using the RNAeasy kit (Qiagen, Valencia, CA, USA). […] The quantification in the unknown samples was performed with LightCycler Relative Quantification Software version 3.3 (Roche Molecular Systems, Alameda, CA, USA). […]
# TNF-α = TNF-α ELISA in LPS-treated NSCs; conditions: vs only LPS-treated NSCs, IM 3 µM, p<0.05
# Bcl-2 protein = Bcl-2 protein expression in NSCs by western blot and immunohistochemistry
# Bad = test: Real-time RT-PCR of Bad mRNA in IM-treated NSCs; conditions: Day 3, Day 5, and Day 7 of IM-treated NSCs
# Experimental: as §1, §2
# caspase 3 = test: Caspase 3 activity ELISA in LPS-treated NSCs; conditions: LPS (100 ng/ml) exposure, Day 7, vs LPS-treated NSCs without treatment, p<0.05
structure (smiles),measurement,setting,value
"CN(C)CCCN1c2ccccc2CCc2ccccc21 [IM, imipramine]",IL-6 production in the LPS-treated NSCs,IL-6,effectively reduces
same,LPS-induced apoptosis (TUNEL assay),LPS-treated NSCs [1],protected against LPS-induced apoptosis
same,percentages of serotonin (5-HT)-positive cells,NSCs [2],significantly increased
same,cell survival rates in the LPS-treated NSCs,LPS-treated NSCs [3],significantly increases
same,5-HT levels of the culture mediums,NSCs [4],significantly higher
same,levels of Bcl-2 mRNA,"Bcl-2; 1, 3, and 5 µM IM, Day 7, vs Day 7 non-IM-treated NSCs",significantly increased
same,mRNA levels of Bcl-2,"Bcl-2; Days 5 and Day 7 IM-treated NSCs vs non IM-treated NSCs, p<0.05",significantly increased
same,TNF-α production in the LPS-treated NSCs,TNF-α,effectively reduces
same,protein expression level of Bcl-2 in LPS-treated NSCs,"Bcl-2 protein; 3 µM IM vs 1, 2 µM IM-LPS-treated, only LPS-treated and control groups",significantly increased
same,protein levels of Bcl-2 (western blot),"Bcl-2 protein; Day 3 IM-treated NSCs vs Day 3 non-IM-treated NSCs, p<0.05",higher
same,expression levels of the Bcl-2 protein (western blot),"Bcl-2 protein; Day 7 IM-treated NSCs vs Day 3 or Day 5 IM-treated NSCs, p<0.05",significantly increased
same,protein expression of Bcl-2 (immunohistochemistry),Bcl-2 protein; Day 7 IM-treated NSCs vs NSCs without the IM treatment,significantly increased
same,Bcl-2 expression in NSCs,Bcl-2 protein; treatment with IM only or BDNF only,can activate Bcl-2 expression
same,expression of Bad,Bad,not activated
same,apoptotic activities of caspase 3,caspase 3,significantly decreased
